Where two headings read alike, the source gives them in different places.
What was measured:
HUVEC cells = test: CCK-8 cell viability: alleviation of proliferative toxicity of anti-tumor agents on HUVEC cells (Tables 7-1, 7-2); type: cell-based; conditions: for activation at 100 µM: Homo sapiens, 24 h, percentage increase in viable cells vs anti-tumor agent alone, read-out: Response rate % (average)
Experimental: The cultured HUVEC cells were digested the suspended, counted, and seed into a 96-well plate with 5,000-10,000 cells per well. The wells are divided into the following groups: blank control group, anti-tumor agent group, anti-tumor agent+NO-NSAID group, anti-tumor agent solvent group, NO-NSAID control group. Wherein each well of each group contained a basic medium, and the final liquid volume contained in each well was about 100 μL. The grouping situation was as follows: • 1) Blank control group: no solution was added except normally replacing the medium; • 2) Anti-tumor agent group: added the anti-tumor agent solution (the final concentration was shown in Table 7-1 and Table 7-2, the solvent of the anti-tumor agent solution was DMSO); • 3) Anti-tumor agent+NO-NSAID group: added the anti-tumor agent solution and the NO-NSAID solution (the final concentrations of anti-tumor agent and NO-NSAID were shown in Table 7-1 and Table 7-2, and according to the solubility of NO-NSAID, the solvent of NO-NSAID solution was selected as ethanol or sterile water, and minor volume differences in each group were adjusted by added the corresponding solvent); • 4) Anti-tumor agent solvent group: an equal volume of DMSO as contained in the corresponding anti-tumor agent solution in Group 2) was added; • 5) NO-NSAID control group: the same volume and type of solvent (for example, ethanol or sterile water) corresponding to the NO-NSAID contained in group 3) was added.
The anti-tumor agent solvent group was not involved in data processing and was only used as a reference for evaluating experimental system error. The NO-NSAID solvent control group was used for data correction to eliminate the influence of the solvent on the results.
After culturing for 24-48 hours, the Cell Counting Kit-8 (CCK-8) detection kit (C0037, Shanghai Beyotime Biotechnology Co., Ltd., Beyotime Biotechnology) was used to determine the cell viability. This allows for the calculation of the proliferative toxicity of anti-tumor agent on cell and the mitigating effect of NO-NSAID on proliferative toxicity. The results were statistically analyzed and plotted using GraphPad Prism 6.0 software and t test.

[1] = test system: hand-foot syndrome induced by anti-tumor agents; test: Prevention of hand-foot syndrome induced by anti-tumor agents in rats, NO-NSAID ointment on hind paws (Table 2-2); type: in vivo, SD rats; conditions: Rattus norvegicus, topical, read-out: Control rate; for responders at 0.5 %: ointment 0.50% wt; for responders at 1 %: ointment 1% wt; for responders at 2.5 %: ointment 2.50% wt; for responders at 5 %: ointment 5% wt
Description: A rat animal model was constructed, and the anti-tumor agents shown in Table 2-2 were respectively administered to 8-week-old female SD rats by daily oral gavage. […] Therefore, rats serve as an excellent animal model for simulating side effects (such as hand-foot syndrome) caused by anti-tumor agents.
After the rats (about 200 g) were fed and adapted for one week, they were divided into a NO-NSAID group and a control group, with 10 rats in each group, and a gavage administration test was conducted. The various anti-tumor agents were dissolve in a mixed solution of Cremophor EL:ethanol=1:1. The anti-tumor agent solution were diluted with PBS to the required concentration (about 3 times with PBS solution) before gavage administration. After gavage, an ointment containing NO-NSAID was applied to the hind paws of the rats, while the control group was applied with a blank ointment. After application, the rats were placed in a fixed cylinder for 4 hours. After 4 hours, the rats were released and the residual ointment was wiped off with clean water, then the rats were returned to the cage. The gavage frequency of inhibitors was shown in Table 2-2, and NO-NSAID was only applied once a day. The gavage and application operations were repeated daily until the end of the experiment.
Table 2-2 lists the animal experimental combinations of various anti-tumor agents and NO-NSAID ointments, as well as the corresponding experimental results (wherein the value in the control rate column=the hand-foot syndrome incidence rate in the blank group−the hand-foot syndrome incidence rate in the treatment group).

[2] = Afatinib (10 μM), NO-NSAID 100 μM
[3] = Cabozantinib (5 μM), NO-NSAID 100 μM
[4] = Dabrafenib (10 μM), NO-NSAID 100 μM
[5] = Everolimus (5 μM), NO-NSAID 100 μM
[6] = Infigratinib (15 μM), NO-NSAID 100 μM
[7] = Lapatinib (5 μM), NO-NSAID 100 μM
[8] = Lenvatinib (10 μM), NO-NSAID 100 μM
[9] = Olmutinib (10 μM), NO-NSAID 100 μM
[10] = Regorafenib (5 μM), NO-NSAID 100 μM
[11] = Selumetinib (5 μM), NO-NSAID 100 μM
[12] = Sorafenib (5 μM), NO-NSAID 100 μM
[13] = Sunitinib (5 μM), NO-NSAID 100 μM
[14] = 120 h, Sorafenib 80 mg/kg once a day, Days 5
[15] = 432 h, Cabozantinib 50 mg/kg once a day, Days 18
[16] = 432 h, Lenvatinib 100 mg/kg twice a day, Days 18
[17] = 432 h, Nintedanib 110 mg/kg once a day, Days 18
[18] = 432 h, Regorafenib 90 mg/kg once a day, Days 18

## CC(C(=O)OCCCO[N+](=O)[O-])c1ccc(-c2ccccc2)c(F)c1 (stereo not drawn) [Compound A1]
HUVEC cells; Afatinib (10 μM), NO-NSAID 0.1 μM
  NO-NSAID response rate % (average): 13%
HUVEC cells; Afatinib (10 μM), NO-NSAID 1 μM
  NO-NSAID response rate % (average): 20%
HUVEC cells; [2]
  NO-NSAID response rate % (average): 50%
  activation at 100 µM: 50%
HUVEC cells; Afatinib (10 μM), NO-NSAID 500 μM
  NO-NSAID response rate % (average): 25%
HUVEC cells; Cabozantinib (5 μM), NO-NSAID 0.1 μM
  NO-NSAID response rate % (average): 10%
HUVEC cells; Cabozantinib (5 μM), NO-NSAID 1 μM
  NO-NSAID response rate % (average): 10%
HUVEC cells; [3]
  NO-NSAID response rate % (average): 4%
  activation at 100 µM: 4%
HUVEC cells; Cabozantinib (5 μM), NO-NSAID 500 μM
  NO-NSAID response rate % (average): 15%
HUVEC cells; Dabrafenib (10 μM), NO-NSAID 0.1 μM
  NO-NSAID response rate % (average): 22%
HUVEC cells; Dabrafenib (10 μM), NO-NSAID 1 μM
  NO-NSAID response rate % (average): 48%
HUVEC cells; [4]
  NO-NSAID response rate % (average): 53%
  activation at 100 µM: 53%
HUVEC cells; Dabrafenib (10 μM), NO-NSAID 500 μM
  NO-NSAID response rate % (average): 37%
HUVEC cells; Everolimus (5 μM), NO-NSAID 0.1 μM
  NO-NSAID response rate % (average): 4%
HUVEC cells; Everolimus (5 μM), NO-NSAID 1 μM
  NO-NSAID response rate % (average): −2%
HUVEC cells; [5]
  NO-NSAID response rate % (average): 62%
  activation at 100 µM: 62%
HUVEC cells; Everolimus (5 μM), NO-NSAID 500 μM
  NO-NSAID response rate % (average): 20%
HUVEC cells; Anlotinib (5 μM), NO-NSAID 100 μM
  activation at 100 µM: 16%
HUVEC cells; Apatinib (10 μM), NO-NSAID 100 μM
  activation at 100 µM: 43%
HUVEC cells; Axitinib (10 μM), NO-NSAID 100 μM
  activation at 100 µM: 65%
HUVEC cells; Dacomitinib (5 μM), NO-NSAID 100 μM
  activation at 100 µM: 59%
HUVEC cells; Encorafenib (5 μM), NO-NSAID 100 μM
  activation at 100 µM: 65%
HUVEC cells; Erdafitinib (10 μM), NO-NSAID 100 μM
  activation at 100 µM: 51%
HUVEC cells; Famitinib (5 μM), NO-NSAID 100 μM
  activation at 100 µM: 70%
HUVEC cells; Fruquintinib (10 μM), NO-NSAID 100 μM
  activation at 100 µM: 23%
HUVEC cells; Gefitinib (10 μM), NO-NSAID 100 μM
  activation at 100 µM: 30%
HUVEC cells; [6]
  activation at 100 µM: 80%
  NO-NSAID response rate % (average): 80%
HUVEC cells; [7]
  activation at 100 µM: 27%
  NO-NSAID response rate % (average): 27%
HUVEC cells; [8]
  activation at 100 µM: 28%
  NO-NSAID response rate % (average): 28%
HUVEC cells; [9]
  activation at 100 µM: 37%
  NO-NSAID response rate % (average): 37%
HUVEC cells; [10]
  activation at 100 µM: 64%
  NO-NSAID response rate % (average): 64%
HUVEC cells; [11]
  activation at 100 µM: 51%
  NO-NSAID response rate % (average): 51%
HUVEC cells; [12]
  activation at 100 µM: 51%
  NO-NSAID response rate % (average): 51%
HUVEC cells; [13]
  activation at 100 µM: 11%
  NO-NSAID response rate % (average): 11%
HUVEC cells; Vemurafenib (5 μM), NO-NSAID 100 μM
  activation at 100 µM: 45%
HUVEC cells; Infigratinib (15 μM), NO-NSAID 0.1 μM
  NO-NSAID response rate % (average): 23%
HUVEC cells; Infigratinib (15 μM), NO-NSAID 1 μM
  NO-NSAID response rate % (average): 14%
HUVEC cells; Infigratinib (15 μM), NO-NSAID 500 μM
  NO-NSAID response rate % (average): 25%
HUVEC cells; Lapatinib (5 μM), NO-NSAID 0.1 μM
  NO-NSAID response rate % (average): 27%
HUVEC cells; Lapatinib (5 μM), NO-NSAID 1 μM
  NO-NSAID response rate % (average): 23%
HUVEC cells; Lapatinib (5 μM), NO-NSAID 500 μM
  NO-NSAID response rate % (average): 24%
HUVEC cells; Lenvatinib (10 μM), NO-NSAID 0.1 μM
  NO-NSAID response rate % (average): 21%
HUVEC cells; Lenvatinib (10 μM), NO-NSAID 1 μM
  NO-NSAID response rate % (average): 13%
HUVEC cells; Lenvatinib (10 μM), NO-NSAID 500 μM
  NO-NSAID response rate % (average): 10%
HUVEC cells; Olmutinib (10 μM), NO-NSAID 0.1 μM
  NO-NSAID response rate % (average): 25%
HUVEC cells; Olmutinib (10 μM), NO-NSAID 1 μM
  NO-NSAID response rate % (average): 20%
HUVEC cells; Olmutinib (10 μM), NO-NSAID 500 μM
  NO-NSAID response rate % (average): 31%
HUVEC cells; Regorafenib (5 μM), NO-NSAID 0.1 μM
  NO-NSAID response rate % (average): 21%
HUVEC cells; Regorafenib (5 μM), NO-NSAID 1 μM
  NO-NSAID response rate % (average): 27%
HUVEC cells; Regorafenib (5 μM), NO-NSAID 500 μM
  NO-NSAID response rate % (average): 42%
HUVEC cells; Selumetinib (5 μM), NO-NSAID 0.1 μM
  NO-NSAID response rate % (average): 36%
HUVEC cells; Selumetinib (5 μM), NO-NSAID 1 μM
  NO-NSAID response rate % (average): 28%
HUVEC cells; Selumetinib (5 μM), NO-NSAID 500 μM
  NO-NSAID response rate % (average): 25%
HUVEC cells; Sorafenib (5 μM), NO-NSAID 0.1 μM
  NO-NSAID response rate % (average): 1%
HUVEC cells; Sorafenib (5 μM), NO-NSAID 1 μM
  NO-NSAID response rate % (average): 14%
HUVEC cells; Sorafenib (5 μM), NO-NSAID 500 μM
  NO-NSAID response rate % (average): 8%
HUVEC cells; Sunitinib (5 μM), NO-NSAID 0.1 μM
  NO-NSAID response rate % (average): 19%
HUVEC cells; Sunitinib (5 μM), NO-NSAID 1 μM
  NO-NSAID response rate % (average): 5%
HUVEC cells; Sunitinib (5 μM), NO-NSAID 500 μM
  NO-NSAID response rate % (average): 29%
[1]; [14]
  responders at 0.5 %: 42.9%
  responders at 1 %: 42.9%
  responders at 2.5 %: 60%
  responders at 5 %: 83.3%
[1]; 360 h, Apatinib 105 mg/kg once a day, Days 15
  responders at 2.5 %: 57.1%
[1]; 360 h, Encorafenib 80 mg/kg once a day, Days 15
  responders at 2.5 %: 60%
[1]; 360 h, Lapatinib 120 mg/kg twice a day, Days 15
  responders at 2.5 %: 33.3%
[1]; 360 h, Sunitinib 120 mg/kg once a day, Days 15
  responders at 2.5 %: 57.1%
[1]; 384 h, Fruquintinib 40 mg/kg once a day, Days 16
  responders at 2.5 %: 57.1%
[1]; 432 h, Anlotinib 20 mg/kg once a day, Days 18
  responders at 2.5 %: 33.3%
[1]; 432 h, Axitinib 50 mg/kg once a day, Days 18
  responders at 2.5 %: 60%
[1]; [15]
  responders at 1 %: 40%
  responders at 2.5 %: 33.3%
  responders at 5 %: 66.7%
[1]; [16]
  responders at 1 %: 28.6%
  responders at 2.5 %: 57.1%
  responders at 5 %: 57.1%
[1]; [17]
  responders at 1 %: 33.3%
  responders at 2.5 %: 66.7%
  responders at 5 %: 66.7%
[1]; [18]
  responders at 0.5 %: 33.3%
  responders at 1 %: 50%
  responders at 2.5 %: 42.9%
  responders at 5 %: 80%
[1]; 480 h, Erdafitinib 45 mg/kg once a day, Days 20
  responders at 2.5 %: 42.9%
[1]; 480 h, Olmutinib 100 mg/kg once a day, Days 20
  responders at 2.5 %: 50%
